Experimental findings from patent US9580426B2, “Compounds that expand hematopoietic stem cells” (Novartis AG, priority 2008, dated 2017) are described below.

Series [1] concerns mPB CD34+ cells and CB CD34+ cells. Description: Colony-Forming Units in Culture (CFU-C) Assay. Format: cell-based, human. The procedure: Colony-Forming Units in Culture (CFU-C) Assay: Mononuclear cells at 1000 per mL for cord blood 5 week and mPB 3 week culture and 100 cells per mL for C δ 3 week and mPB 1 week culture were added to MethoCult SF H4436, serum-free methylcellulose medium containing methylcellulose in Iscove's MDM, bovine serum albumin, 2-mercaptoethanol, L-glutamine, human transferring (iron saturated), recombinant human insulin, and recombinant human cytokines: stem cell factor, GM-CSF, IL-3, IL-6, G-CSF, and erythropoietin (StemCell Technologies). The MethoCult is supplemented with the following human recombinant cytokines: thrombopoietin, and Flt-3 ligand (R&D Systems), each at a final concentration of 50 ng/mL. After stirring, the mixture is divided into three 35-mm dishes. The dishes are incubated for 14 days at 37° C. in a humidified atmosphere of 5% CO2 in air. At the end of the incubation period, myeloid and erythroid colonies are counted under an inverted microscope at 40× magnification. CFU-C content of the expansion culture is calculated as follows: number of scored colonies per three dishes×total mononuclear cell number/input cell number. Up to one week, total mononuclear cells are determined by multiplying the number of cells per milliliter by the culture volume. From week 1 and on, the number of passages is also taken into account. Cultures treated with 4-(2-(2-(benzo[b]thiophen-3-yl)-9-isopropyl-9H-purin-6-ylamino)ethyl)phenol (compound 1, table 1; example 1) at a concentration of 1 micromolar, generated a greater than 10-fold increase in the number of colony forming cells after 21 days of culture of mPB CD34+ cells compared to vehicle. […] Cells treated with a 4-(2-(2-(benzo[b]thiophen-3-yl)-9-isopropyl-9H-purin-6-ylamino)ethyl)phenol (compound 1, table 1; example 1) generated more mixed colonies associated with a >10-fold increase in erythrocyte colonies, a >10-fold increase in granulocyte/macrophage colonies, and a >10-fold increase in macrophage colonies.

Series [2] relates to mPB-derived CD34+ cells. Briefly: Genome-wide transcriptional profiling. Format: cell-based, human. The following applies: 24 hours. From the text:
The two genes that were the most highly repressed by treatment with Example 1 (cytochrome P450 1B1 [CYP1B1] and the aryl hydrocarbon receptor repressor [AHRR]) are transcriptionally regulated by the aryl hydrocarbon receptor (AHR). Therefore, compounds of the invention could be acting as an antagonist of AHR signaling.

Series [3] deals with T1, AHR (Mus musculus, UniProt P30561).
T1 construct: endogenous in cells; host or cells: unnamed murine cells
T1 sequence (P30561 10-848): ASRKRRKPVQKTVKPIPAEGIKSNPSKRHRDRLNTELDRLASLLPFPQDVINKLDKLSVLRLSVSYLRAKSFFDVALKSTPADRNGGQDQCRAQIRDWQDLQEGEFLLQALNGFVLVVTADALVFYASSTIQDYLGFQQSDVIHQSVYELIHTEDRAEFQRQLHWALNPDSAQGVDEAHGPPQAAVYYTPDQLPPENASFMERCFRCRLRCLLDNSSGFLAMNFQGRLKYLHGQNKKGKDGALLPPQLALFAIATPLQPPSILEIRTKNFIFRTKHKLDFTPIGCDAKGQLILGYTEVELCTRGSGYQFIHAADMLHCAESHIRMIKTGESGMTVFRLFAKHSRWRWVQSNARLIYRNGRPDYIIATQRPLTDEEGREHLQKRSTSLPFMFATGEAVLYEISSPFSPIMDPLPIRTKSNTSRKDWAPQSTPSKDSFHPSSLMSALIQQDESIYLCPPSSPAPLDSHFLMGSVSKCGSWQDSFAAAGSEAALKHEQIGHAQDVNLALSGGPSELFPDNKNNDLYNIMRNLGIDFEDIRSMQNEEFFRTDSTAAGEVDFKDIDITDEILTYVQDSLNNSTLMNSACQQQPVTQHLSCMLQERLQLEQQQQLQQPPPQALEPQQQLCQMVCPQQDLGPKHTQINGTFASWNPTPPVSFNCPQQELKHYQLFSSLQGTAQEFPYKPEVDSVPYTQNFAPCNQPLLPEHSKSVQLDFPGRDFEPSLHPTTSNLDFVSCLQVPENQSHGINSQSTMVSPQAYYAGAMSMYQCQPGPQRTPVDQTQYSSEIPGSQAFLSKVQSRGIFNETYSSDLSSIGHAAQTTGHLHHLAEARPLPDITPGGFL
Description: Dioxin induced AHR dependent transcription, murine cells. Format: cell-based. The protocol: Further, the ability of Example 1 to block 2,3,7,8-tetrachlorodibenzo-p-dioxin (TCDD, dioxin)-mediated CYP1B1 mRNA expression by qPCR in mPB-derived CD34^+ cells was determined. Treatment with TCDD (3 nM) caused a 4.5-fold increase in the level of CYP1B1 mRNA compared with the vehicle control (0.01% toluene). […] To determine the effects of Example 1 in AHR transcription the ability of Example 1 to inhibit a dioxin-induced AHR dependent luciferase reporter gene assay was tested.

In the case of `CC(C)n1cnc2c(NCCc3ccc(O)cc3)nc(-c3csc4ccccc34)nc21` [Example 1, 4-(2-(2-(benzo[b]thiophen-3-yl)-9-isopropyl-9H-purin-6-ylamino)ethyl)phenol], the “increase in colony forming units compared to control” value in series [1] (1 micromolar, 1x10^3 CB CD34+ cells, 5 week culture) was “greater than 10 fold”. The “increase in the number of colony forming cells compared to vehicle” value in series [1] (1 micromolar, after 21 days of culture of mPB CD34+ cells) is recorded as “greater than 10 fold”. In addition, the mixed granulocyte/erythrocyte/monocyte/macrophage colonies entry in series [1] (not observed in colonies derived from untreated cultures) is recorded as “give rise mixed granulocyte/erythrocyte/monocyte/macrophage colonies”. In series [1] (treated cells vs untreated), the “increase in erythrocyte colonies” value is on record as “greater than 10 fold”, the “increase in granulocyte/macrophage colonies” value was “greater than 10 fold” and the “increase in macrophage colonies” value is “greater than 10 fold”. The “down-regulation of 5 genes (most repressed: CYP1B1, AHRR)” value in series [2] (1 μM) was over 70%. In series [2], the “up-regulation of 5 genes of >50,000 probe sets” value is “greater than 3 fold”. Also, in series [3], the “agonist activity (AHR dependent transcription)” value is recorded as “only weak agonist activity” and the “inhibition of dioxin induced transcription” value is “only weakly inhibited”.
